pIC50: −log10 of the molar value. “Also recorded” adds a separate entry of the source.
Legend:
Type in all cases: cell-based
[1] = target: T1, RXRα (Homo sapiens, UniProt P19793); test: CAT reporter assay, RXRα; conditions: 1 μM, control = 1.0, RA = 9-cis RA; for expression level of CAT enzyme, RXRα −: column '−'
T1 construct: expressed in transfected cells
T1 sequence (P19793 1-462): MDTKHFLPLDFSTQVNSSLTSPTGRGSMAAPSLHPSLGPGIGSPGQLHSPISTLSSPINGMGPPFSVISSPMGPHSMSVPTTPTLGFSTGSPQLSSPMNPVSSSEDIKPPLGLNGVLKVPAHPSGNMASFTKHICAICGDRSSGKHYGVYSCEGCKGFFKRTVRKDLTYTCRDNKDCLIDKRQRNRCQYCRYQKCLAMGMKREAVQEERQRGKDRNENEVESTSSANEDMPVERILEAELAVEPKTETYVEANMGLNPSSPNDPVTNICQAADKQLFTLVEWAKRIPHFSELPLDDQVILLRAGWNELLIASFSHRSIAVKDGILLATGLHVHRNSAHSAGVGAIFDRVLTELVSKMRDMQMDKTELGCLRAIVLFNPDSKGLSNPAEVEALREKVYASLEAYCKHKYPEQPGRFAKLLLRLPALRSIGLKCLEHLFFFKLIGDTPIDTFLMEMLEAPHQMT
Excerpt: As the reporter gene, chloramphenicol acetyltransferase (CAT) with a transcription control site reactive to respective receptors was used.

[2] = target: T2, RARα (Homo sapiens, UniProt P10276); test: CAT reporter assay, RARα; conditions: 1 μM, control = 1.0; for expression level of CAT enzyme, RARα −: column '−'
T2 construct: expressed in transfected cells
T2 sequence (P10276 1-462): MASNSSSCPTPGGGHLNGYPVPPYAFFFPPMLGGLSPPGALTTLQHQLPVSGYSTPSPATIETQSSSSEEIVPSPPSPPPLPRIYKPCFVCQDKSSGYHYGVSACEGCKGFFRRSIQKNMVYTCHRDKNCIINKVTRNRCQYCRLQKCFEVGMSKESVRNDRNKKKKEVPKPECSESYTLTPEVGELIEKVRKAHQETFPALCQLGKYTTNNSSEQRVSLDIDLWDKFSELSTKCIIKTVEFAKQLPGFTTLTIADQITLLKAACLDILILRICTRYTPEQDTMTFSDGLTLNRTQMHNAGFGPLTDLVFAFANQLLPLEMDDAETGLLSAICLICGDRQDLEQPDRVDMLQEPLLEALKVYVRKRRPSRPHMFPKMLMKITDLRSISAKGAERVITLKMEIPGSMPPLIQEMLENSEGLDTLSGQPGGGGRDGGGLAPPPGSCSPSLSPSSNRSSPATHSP
Excerpt: (§1) In order to confirm the effect of KCBG60 according to the present invention on retinoid receptor activity, cells were cotransfected with expression vectors of receptor subfamilies and reporter genes. As the reporter gene, chloramphenicol acetyltransferase (CAT) with a transcription control site reactive to respective receptors was used.

[3] = test system: cancer cells; test: Acridine orange / ethidium bromide double staining; conditions: 10 μM, 96 hours
Excerpt: Therefore, the anti-proliferation effect of KCBG60 is due to the induction of apoptosis.

[4] = test system: RARs and RXRs; test: CAT reporter assay, summary for RARs and RXRs (Experimental Example 9); conditions: 1 μM
Excerpt: as §1
In the transcriptional activity for RXR type receptors, similar results were obtained.

[5] = test system: cancer cells; test: FACS analysis of DNA content; conditions: 10 μM, 96 hours
Excerpt: In order to quantitatively determine the levels of apoptosis, the cells treated with the same conditions as above were subjected to FACS analysis to measure DNA contents (FIG. 11).

[6] = test system: HeLa cervix cancer cells; test: MTT proliferation assay, HeLa; conditions: 48 hours, uterine cancer
Experimental: (§2) The effects of test compounds on proliferation of various cancer cells was examined by 3-(4,5-dimethylthiazol-2-yl)-2,5-diphenyltetrazolium bromide (MTT, Sigma) assay in a dose dependent manner. In the MTT assay, colon, liver, cervix, ovary, and breast cancer cell lines were treated with test compounds at various concentrations. Living cancer cells reduce MTT to dark blue MTT formazan that would be measured by absorbance.
(§3) Colon cancer cells, HCT116, DLD-1 and HT29, cervix cancer cells, HeLa and CaSki, ovary cancer cells, SKOV-3, 2774 and OVCAR-3, liver cancer cells, SK-Hep-1, PLCPRF5 and HepG2, and breast cancer cells, ZR75-1 and MDA-MB 231 were seeded at an initial density of 3000 cells per well in 96-well plates. After attachment of cells to the walls of the wells, the medium containing fresh retinoid was treated with various concentrations (0.5 μM, 1 μM, 2.5 μM, 5 μM, 10 μM) for 48 hours. 50 μl of MTT solution (2 mg/ml in PBS) was added to cell culture media. The reaction micture was incubated at 37° C. in a 5% CO2 atmosphere for 4 hours. The supernatant was removed and 150 μl of DMSO was added. The optical density was measured spectrophotometrically at 550 nm. […] For other retinoid derivatives according to the present invention, absorbances were measured by this procedure and IC50 values, concentrations required for 50% growth inhibition, were determined.

[7] = test system: PLCPRF5 liver cancer cells; test: MTT proliferation assay, PLCPRF5
Experimental: as §2, §3

[8] = test system: SKOV-3 ovary cancer cells; test: MTT proliferation assay, SKOV-3; conditions: ovarian cancer
Experimental: as §2, §3

[9] = test system: MCF-7 breast cancer cells; test: Optical microscopy of treated cells, MCF-7; conditions: MCF-7, 5 μM, 48 hours, compared to HPR
Experimental: Both colon cancer HCT116 cells and breast cancer MCF-7 cells were treated with 5 μM of the retinoid derivatives KCBG10 and KCBG41 for 48 hours, and photographed by optical microscope (×200). As a control compound, HPR was used at the same concentration. In FIG. 2, the control represents non-treated cells.

[10] = test system: RAR subfamilies (RARα, RARβ, RARγ); test: CAT ELISA reporter assay of retinoid receptors (Experimental Example 4)
Experimental: As the reporter gene, chloramphenicol acetyltransferase (CAT) gene was used. […] The colon cancer cells were plated at 10^6 in 6-well. At next day, the mixture of DNA (2 μg) and SuperFect reagent was added to the cells. After overnight transfection, the media were exchanged with fresh media containing retinoid at various concentrations for 24 hours and washed with cold 1×PBS. The cells were collected, suspended in 100 μl of 0.25M Tris-HCl (pH 7.6) and lysed by 3 freezing-thawing cycles. After centrifugation (12,000×g, 10 min, 4° C.), 100 μl of the supernatant was recovered. 10 μl of the recovered supernatant was tested for activity of β-galactosidase according to standard prosedures (Sambrook et al., 1989) and 50 μl of the recovered supernatant were tested for activity of the reporter by the CAT ELISA (Boeringer Mannheim, Germany) method. The obtained data for activity of the reporter was normalized with respect to β-gal activity for comparison.

Molecule: CCCC(=O)Oc1ccc(NC(=O)/C=C(C)/C=C/C=C(C)/C=C/C2=C(C)CCCC2(C)C)cc1 [KCBG60]
- expression level of CAT enzyme, RXRα + [1]: 1.3
- expression level of CAT enzyme, RXRα − [1]: 0.9
- expression level of CAT enzyme, RARα + [2]: 1.1
- expression level of CAT enzyme, RARα − [2]: 0.7
- acridine orange / ethidium bromide staining colour of cells [3]: cells were stained with orange color
- activity for RARs and RXRs [4]: activity as low as the control and phenyl butylate-treated group; also recorded: almost no activity for RARs and RXRs
- relative rate of dead cells having a DNA content of 2N or less [5]: much higher rates than other groups

Molecule: CC1=C(/C=C/C(C)=C/C=C/C(C)=C/C(=O)O)C(C)(C)CCC1 [ATRA, All-trans-retinoic acid, reference compound]
- pIC50 ([6]; Homo sapiens, HeLa): 5.30
- pIC50 ([7]; Homo sapiens, PLC-PRF-5, 48 hours): < 3.30
- expression level of CAT enzyme, RARα + [2]: 66.7
- expression level of CAT enzyme, RARα − [2]: 17.3
- pIC50 ([8]; Homo sapiens, SK-OV-3, 48 hours): < 4.00

Molecule: phenyl butylate
- expression level of CAT enzyme, RXRα + [1]: 1.2
- expression level of CAT enzyme, RXRα − [1]: 1.1
- expression level of CAT enzyme, RARα + [2]: 0.8
- expression level of CAT enzyme, RARα − [2]: 0.7
- acridine orange / ethidium bromide staining colour of cells [3]: cells remained normal green color

Molecule: CCCC(=O)Nc1cc(NC(=O)/C=C(C)/C=C/C=C(C)/C=C/C2=C(C)CCCC2(C)C)ccc1O [KCBG41, (2E,4E,6E,8E)-[3,7-dimethyl-9-(2,6,6-trimethylcyclohex-1-enyl)-nona-2,4,6,8-tetraenoylamino]-(3-butyrylamino-4-hydroxy)phenylamide]
- number of viable cancer cells (microscopy) [9]: significant reductions in the number of viable cancer cells
- pIC50 [6]: 5.52
- retinoid receptor activity relative to ATRA and HPR ([10]; three RAR subfamilies, as the concentration increased): about 50%
- pIC50 ([8]; 48 hours): 5.52

Molecule: CC1=C(/C=C/C(C)=C/C=C/C(C)=C/C(=O)Nc2ccc(O)cc2)C(C)(C)CCC1 [HPR, (2E,4E,6E,8E)-[3,7-dimethyl-9-(2,6,6-trimethylcyclohex-1-enyl)-nona-2,4,6,8-tetraenoylamino]-4-hydroxyphenylamide]
- expression level of CAT enzyme, RXRα + [1]: 1.5
- expression level of CAT enzyme, RXRα − [1]: 1.0
- pIC50 [6]: 5.52
- pIC50 ([7]; 48 hours): 4.70
- expression level of CAT enzyme, RARα + [2]: 30.4
- expression level of CAT enzyme, RARα − [2]: 9.9
- activity relative to ATRA for all 3 RARs [4]: about 50%
- pIC50 ([8]; 48 hours): 5.70
- relative rate of dead cells having a DNA content of 2N or less [5]: much higher rates than other groups

Molecule: CCCC(=O)Oc1cc(O)ccc1NC(=O)/C=C(C)/C=C/C=C(C)/C=C/C1=C(C)CCCC1(C)C [KCBG10, 2.2-[(2E,4E,6E,8E)-3,7-Dimethyl-9-(2,6,6-trimethylcyclohex-1-enyl)-nona-2,4,6,8-tetraenoylamino]-5-hydroxyphenylbutanoate]
- number of viable cancer cells (microscopy) [9]: significant reductions in the number of viable cancer cells; also recorded: kills MCF-7 cells much more than other derivatives
- pIC50 [6]: 6.30
- pIC50 ([7]; 48 hours): 4.92
- retinoid receptor activity (CAT reporter) ([10]; concentration dependence): did not have activity at a low concentration but showed an increase of activity as the concentration increased
- pIC50 ([8]; 48 hours): 6.30

Reference: patent US7166744B2, “Retinoid derivatives and methods for producing said compounds and anti-cancer pharmaceutical composition comprising said compounds” (Chebigen Co., Ltd., priority 2001, dated 2007)
